Results published in patent US9187556B2, “SEMA5B peptides and vaccines including the same” (OncoTherapy Science, Inc., priority 2011, dated 2015).

Legend:
peptide-pulsed T2 cells [1] = assay: IFN-gamma ELISPOT assay on CTLs induced with peptide-pulsed DCs; format: cell-based, human; conditions: CTLs from HLA-A*0201 positive donor, compared to control wells
Text: Monocyte-derived dendritic cells (DCs) were used as antigen-presenting cells to induce cytotoxic T lymphocyte (CTL) responses against peptides presented on human leukocyte antigen (HLA). DCs were generated in vitro as described elsewhere (Nakahara S et al., Cancer Res 2003 Jul. 15, 63(14): 4112-8). Specifically, peripheral blood mononuclear cells isolated from a normal volunteer (HLA-A*0201 positive) by Ficoll-Paque plus (Pharmacia) solution were separated by adherence to a plastic tissue culture dish (Becton Dickinson) so as to enrich them as the monocyte fraction. The monocyte-enriched population was cultured in the presence of 1000 U/ml of granulocyte-macrophage colony-stimulating factor (R&D System) and 1000 U/ml of interleukin (IL)-4 (R&D System) in AIM-V Medium (Invitrogen) containing 2% heat-inactivated autologous serum (AS). After 7 days of culture, the cytokine-induced DCs were pulsed with 20 micro g/ml of each of the synthesized peptides in the presence of 3 micro g/ml of beta 2-microglobulin for 3 hr at 37 degree C. in AIM-V Medium. The generated cells appeared to express DC-associated molecules, such as CD80, CD83, CD86 and HLA class II, on their cell surfaces (data not shown). These peptide-pulsed DCs were then inactivated by X ray-irradiated (20 Gy) and mixed at a 1:20 ratio with autologous CD8+ T cells, obtained by positive selection with CD8 Positive Isolation Kit (Dynal). These cultures were set up in 48-well plates (Corning); each well contained 1.5×10^4 peptide-pulsed DCs, 3×10^5 CD8+ T cells and 10 ng/ml of IL-7 (R&D System) in 0.5 ml of AIM-V/2% AS medium. Three days later, these cultures were supplemented with IL-2 (CHIRON) to a final concentration of 20 IU/ml. On day 7 and 14, the T cells were further stimulated with the autologous peptide-pulsed DCs. The DCs were prepared each time by the same way described above. CTLs were tested against peptide-pulsed T2 cells after the 3rd round of peptide stimulation on day 21 (Tanaka H et al., Br J Cancer 2001 Jan. 5, 84(1): 94-9; Umano Y et al., Br J Cancer 2001 Apr. 20, 84(8): 1052-7; Uchida N et al., Clin Cancer Res 2004 December 15, 10(24): 8577-86; Suda T et al., Cancer Sci 2006 May, 97(5): 411-9; Watanabe T et al., Cancer Sci 2005 August, 96(8): 498-506).
(§1) To examine specific CTL activity, interferon(IFN)-gamma enzyme-linked immunospot (ELISPOT) assay and IFN-gamma enzyme-linked immunosorbent assay (ELISA) were performed. Peptide-pulsed T2 (1×10^4/well) was prepared as stimulator cells. Cultured cells in 48-well plate, CTL lines and CTL clones were used as responder cells. IFN-gamma ELISPOT assay and IFN-gamma ELISA assay were performed under manufacture procedure.

peptide-pulsed T2 cells [2] = assay: IFN-gamma ELISA of expanded CTL lines; format: cell-based, human; conditions: target cells pulsed with corresponding peptide vs without peptide pulse
Description: CTLs were expanded in culture using the method similar to the one described by Riddell et al. (Walter E A et al., N Engl J Med 1995 Oct. 19, 333(16): 1038-44; Riddell S R et al., Nat Med 1996 February, 2(2): 216-23). A total of 5×10^4 CTLs were suspended in 25 ml of AIM-V/5% AS medium with 2 kinds of human B-lymphoblastoid cell lines, inactivated by Mitomycin C, in the presence of 40 ng/ml of anti-CD3 monoclonal antibody (Pharmingen). One day after initiating the cultures, 120 IU/ml of IL-2 were added to the cultures. The cultures were fed with fresh AIM-V/5% AS medium containing 30 IU/ml of IL-2 on days 5, 8 and 11 (Tanaka H et al., Br J Cancer 2001 Jan. 5, 84(1): 94-9; Umano Y et al., Br J Cancer 2001 Apr. 20, 84(8): 1052-7; Uchida N et al., Clin Cancer Res 2004 Dec. 15, 10(24): 8577-86; Suda T et al., Cancer Sci 2006 May, 97(5): 411-9; Watanabe T et al., Cancer Sci 2005 August, 96(8): 498-506).
as §1

peptide-pulsed T2 cells [3] = assay: IFN-gamma ELISA of CTL clones established by limiting dilution; format: cell-based, human; conditions: target cells pulsed with each peptide
Description: The dilutions were made to have 0.3, 1, and 3 CTLs/well in 96 round-bottomed micro titer plate (Nalge Nunc International). CTLs were cultured with 1×10^4 cells/well of 2 kinds of human B-lymphoblastoid cell lines, 30 ng/ml of anti-CD3 antibody, and 125 U/ml of IL-2 in a total of 150 micro 1/well of AIM-VMedium containing 5% AS. 50 micro 1/well of IL-2 were added to the medium 10 days later so to reach a final concentration of 125 U/ml IL-2. CTL activity was tested on the 14th day, and CTL clones were expanded using the same method as described above (Uchida N et al., Clin Cancer Res 2004 Dec. 15, 10(24): 8577-86; Suda T et al., Cancer Sci 2006 May, 97(5): 411-9; Watanabe T et al., Cancer Sci 2005 August, 96(8): 498-506).
as §1

[4] = test system: COS7 cells transfected with SEMA5B and HLA-A*0201; assay: Specific CTL activity against target cells expressing SEMA5B and HLA-A*0201; format: cell-based, African green monkey
Description: as §1
The cDNA encoding an open reading frame of target genes or HLA-A*0201 was amplified by PCR. The PCR-amplified product was cloned into expression vector. The plasmids were transfected into COS7, which is HLA-A*0201-null cell line, using lipofectamine 2000 (Invitrogen) according to the manufacturer's recommended procedures. After 2 days from transfection, the transfected cells were harvested with versene (Invitrogen) and used as the stimulator cells (5×10^4 cells/well) for CTL activity assay.

Sequence	Peptide-specific CTL activity (IFN-gamma production) (peptide-pulsed T2 cells [1])	IFN-gamma production of CTL lines (peptide-pulsed T2 cells [2])	IFN-gamma production of CTL clones (peptide-pulsed T2 cells [3])	CTL activity of CTL line against COS7 cells expressing both SEMA5B and HLA-A*0201 ([4]; COS7 transfected with both full length SEMA5B and HLA-A*0201)	CTL activity of CTL line against control COS7 cells ([4]; COS7 transfected with either full length SEMA5B or HLA-A*0201)
GLLTLAVYL [SEQ ID NO: 7, 9 mer peptide derived from SEMA5B, start position 1049]	potent IFN-gamma production				
LIYGVFTTNV [SEQ ID NO: 34, 10 mer peptide derived from SEMA5B, start position 370]	potent IFN-gamma production	potent IFN-gamma production	Potent IFN-gamma production		
LLLPSLTLLV [SEQ ID NO: 27, 10 mer peptide derived from SEMA5B, start position 69]	potent IFN-gamma production	potent IFN-gamma production	Potent IFN-gamma production	potent CTL activity	no significant specific CTL activity was detected
LLPSLTLLV [SEQ ID NO: 5, 9 mer peptide derived from SEMA5B, start position 70]	potent IFN-gamma production	potent IFN-gamma production	Potent IFN-gamma production		
MVLAGPLAV [SEQ ID NO: 8, 9 mer peptide derived from SEMA5B, start position 59; typical negative case]	not shown specific IFN-gamma production				
